Measured values reported in US5750354A, “Lipoxin transport system and uses therefor” (priority 1994, dated 1998).
“Also recorded” adds a separate entry of the source.

Columns and labels:
[1] = test system: retinoic acid-induced HL-60 cells; assay: [3H]LXA4 uptake into retinoic acid-induced HL-60 cells; type: cell-based, human; conditions: Medium, 5 nM, 1-30 min
Experimental: (§1) HL-60 Cells: HL-60 cells were seeded into RPMI medium supplemented with 100 U/ml penicillin, 100 μg/ml streptomycin, and 10% fetal calf serum (Hyclone, Logan, Utah) and grown at 37° C. in 250 ml flasks in a 5% CO2 /95% air atmosphere. Cells were induced to differentiate toward a neutrophil-like phenotype by exposure to 1 μM retinoic acid for 5 days.
(§2) Human red cells, lymphocytes, and platelets were isolated from peripheral blood as described under Methods. Undifferentiated HL-60 cells were grown in culture according to standard protocols. Differentiated HL-60 cells were obtained by exposing cells to 1 μM retinoic acid for 5 days in culture. After harvesting and isolation, all cells were kept in the standard medium for 1 hour at 37° C. prior to assay. […] Results represent the means±SEM of three-four separate experiments for each cell type.

[2] = test system: neutrophils; conditions: 37° C.; cited from earlier work
[3] = cited from earlier work
[4] = test system: myeloid bone marrow colony formation; conditions: 10^-10 M range, with suboptimal GM-CSF; cited from earlier work
[5] = test system: human mononuclear cell-colony formation; conditions: cited from earlier work
[6] = test system: neutrophils; assay: Phagocytosis of opsonized sheep red blood cells by neutrophils; type: cell-based, human
Experimental: Neutrophils were prepared as described in the general methodology and suspended at a concentration of 10×10^6 -15×10^6 cells/ml in Hepes Hanks buffer, pH 7.4, supplemented with 1 mg/ml BSA, 1 mg/ml glucose, 0.5 mM MgCl2 and 1.0 mM CaCl2 --2H2 O.
The sheep red blood cells (SRBCs) were prepared by washing the cells with 1× veronal-buffered saline (VBS), incubating the cells with a 1:500 dilution of rabbit anti-SRBC IgG antibody at 37° C. for 15 minutes, centrifuging the cells at 2000 rpm for 5 minutes at 4° C. and washing the cells twice with 1×VBS. SRBCs were resuspended at a final concentration of 10×10^8 cells/ml.
Each component was pipetted separately to the bottom of a 12×75 mm test tube to allow thorough mixing of the components.
To each 100 μl mixture was added 15 μl of opsonized SRBCs to start the phagocytosis reaction. The tubes were vortexed and placed in a 37° C. incubator for 30 minutes. After 30 minutes, the tubes were placed on ice to stop the reaction.
Non-phagocytosed SRBCs were lysed by adding 1.0 ml of 0.83% NH4 Cl to each tube, with shaking, and centrifuging the tubes quickly at 1500 rpm for 3 minutes. The supernatant was removed and the pellets were resuspended in 30 gl of PBS. The 30 μl solution was placed onto a polylysine-coated microscope slide and after 15 minutes the excess solution was removed from the slide. The cells on the slide were fixed with 1% glutaraldehyde for 5 minutes and then the excess glutaraldehyde was removed. The cells were stained with Giemsa Stain by immersing the slide in the stain for 25 minutes, rinsing the slide with water and allowing the slide to dry overnight.
The slides were examined with a light microscope at 100×power. SRBCs which were phagocytosed by neutrophils were visible as yellow cells within blue-stained neutrophils. The results for each reaction were expressed as a phagocytic index, representing the number of SRBCs phagocytosed per 100 neutrophils. […]

[7] = nM levels; cited from earlier work
[8] = test system: asthmatic patients; conditions: micromolar amounts via inhalation; cited from earlier work
[9] = test system: unstimulated human platelets; assay: [3H]LXA4 uptake into platelets; type: cell-based; conditions: Medium, 5 nM, 1-30 min
Experimental: Platelets: Platelets were purified to homogeneity from acid citrate dextrose-treated blood according to established protocols (Romano, M. and Serhan, C. N. (1992) Biochemistry 31:8269-8277).
as §2

[10] = RP-HPLC analysis of LXA4 integrity after exposure to inhibitors; type: physicochemical; conditions: 30 min of exposure
[11] = test system: renal vasoconstrictor actions of LTD4; conditions: prior exposure, nM; cited from earlier work
[12] = test system: protein kinase C (PKC); conditions: about 10 nM; cited from earlier work
[13] = test system: undifferentiated HL-60 cells; assay: [3H]LXA4 uptake into undifferentiated HL-60 cells; type: cell-based, human; conditions: Medium, 5 nM, 1-30 min
Experimental: as §1, §2

[14] = test system: unstimulated human lymphocytes; assay: [3H]LXA4 uptake into lymphocytes; type: cell-based; conditions: Medium, 5 nM, 1-30 min
Experimental: Lymphocvtes: The lymphocyte-rich interface layer was taken at the Ficoll-Hypaque gradient step of the neutrophil purification procedure. Platelets were removed by slow-speed centrifugation (see below) and contaminating monocytes and neutrophils by adherence to plastic Petri dishes for 1 hour at 37 ° C.
as §2

[15] = test system: unstimulated human erythrocytes; assay: [3H]LXA4 uptake into erythrocytes; type: cell-based; conditions: Medium, 5 nM, 1-30 min
Experimental: Red Blood Cells (RBC): RBC were obtained directly from the heparinized blood of normal human donors. During repeated (four) washing steps, the uppermost portion of the cell pellets was aspirated and discarded to remove residual minor contamination of buffy coat cells.
as §2

[16] = test system: polymorphonuclear leukocytes; conditions: cited from earlier work
[17] = biological target: T1, specific lipoxin receptors (Homo sapiens, UniProt P25090); conditions: 4° C.; cited from earlier work
T1 sequence (P25090 1-351): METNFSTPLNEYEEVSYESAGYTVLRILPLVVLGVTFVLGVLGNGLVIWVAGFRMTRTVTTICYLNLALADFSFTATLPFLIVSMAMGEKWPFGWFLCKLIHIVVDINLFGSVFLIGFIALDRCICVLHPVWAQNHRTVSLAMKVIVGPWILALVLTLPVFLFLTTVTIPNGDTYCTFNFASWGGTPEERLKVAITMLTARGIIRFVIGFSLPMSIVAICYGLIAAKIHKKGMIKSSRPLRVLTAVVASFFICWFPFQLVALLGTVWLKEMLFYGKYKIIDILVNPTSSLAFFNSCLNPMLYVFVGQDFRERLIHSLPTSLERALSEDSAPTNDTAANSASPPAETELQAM

[18] = test system: human neutrophils; conditions: not told
[19] = test system: LTD4- and LTB4-mediated inflammation; conditions: in vivo; cited from earlier work
[20] = biological target: T1, specific lipoxin receptors; assay: [3H]LXA4 ligand binding to human neutrophils
Experimental: Influx rates were calculated by fitting the data points to a single exponential equation (Eq. 1). Results have been taken from three experiments based upon duplicate determinations. […] Specific binding was taken as the difference between total and non-specific binding. […] Results are from three separate experiments, each performed in triplicate.

[21] = test system: lipoxin transport system; assay: [3H]LXA4 influx into human neutrophils (unidirectional tracer flux); conditions: combined data: Control, 0.4 mM SITS, 1 mM probenecid, Na+-free medium, high K+ medium; 5 nM LXA4

In the case of CCCCC[C@H](O)/C=C/C=C\C=C\C=C\[C@@H](O)[C@@H](O)CCCC(=O)O [LXA4, (5S,6R,15S)-trihydroxy-7,9,13-trans-11-cis-eicosatetraenoic acid], the “[3H]LXA4 Uptake Rate” value [1] is listed as 0.73 ± 0.15 fmol/10^6 cells/min, the “metabolic transformation in neutrophils” value [2] is listed as “not subject to metabolic transformation” and the “pK' of the carboxylic acid moiety” value [3] is listed as ~ 3.8. For the same compound, the “cell proliferation / colony formation” value [4] was “stimulates cell proliferation”, the “mononuclear cell-colony formation” value [5] was “stimulates” and the “effect on neutrophil phagocytosis, phagocytic index” value ([6]; 100 nM or 1000 nM, pH 7.4, 37° C., 30 minutes) was “more effective at inhibiting phagocytosis than LXB4; also recorded: inhibit phagocytosis”. The “pH-dependence of inhibition of neutrophil phagocytosis” value ([6]; extracellular pH 6.4, 7.4, 8.4) was “increases as the extracellular pH is decreased”, the “vasodilation” value [7] was “elicit prompt vasodilation” and the “bronchoconstriction” value [8] was “blocks bronchoconstriction”. The “[3H]LXA4 Uptake Rate” value [9] was -0.0003 ± 0.0015 fmol/10^6 cells/min, the “integrity after exposure to DISA, PCP, UK-5099, and mersalyl” value [10] was “preservation of the integrity” and the “renal vasoconstriction by LTD4” value [11] was “blocks renal vasoconstrictor actions”. For the same compound, the “effect on PKC activity” value [12] was “enhance”, the “[3H]LXA4 Uptake Rate” value [13] was 0.11 ± 0.02 fmol/10^6 cells/min and the “[3H]LXA4 Uptake Rate” value [14] was 0.0019 ± 0.0048 fmol/10^6 cells/min. The “[3H]LXA4 Uptake Rate” value [15] was 0.0014 ± 0.0006 fmol/10^6 cells/min, the “chemotaxis” value [16] was “inhibits chemotaxis” and the binding sites [17] was ~ 1830 sites/cell. The half-time for binding [17] was “.15 s”, the “efflux final value (relative cell content)” value [18] was 0.54±0.03 and the “leukotriene-mediated inflammation” value [19] was “inhibits”. The “[3H]LXA4 Binding, total” value ([20]; Medium, 0.3 nM [3H]LXA4, 4° C., 5 min, no unlabeled LXA4) was 1.05 ± 0.03 fmol/10^6 cells, the “[3H]LXA4 Binding, non-specific” value ([20]; Medium, + unlabeled LXA4 0.3 μM) was 0.40 ± 0.08 fmol/10^6 cells and the “specific binding as share of total binding” value ([20]; displaced by 1,000-fold excess unlabeled LXA4) was ~ 70%. For the same compound, the “[3H]LXA4 Binding, non-specific” value ([20]; pHo 6.40, + unlabeled LXA4 0.3 μM) was 0.39 ± 0.04 fmol/10^6 cells, the “[3H]LXA4 Binding, total” value ([20]; pHo 6.40, no unlabeled LXA4) was 1.02 ± 0.09 fmol/10^6 cells and the “[3H]LXA4 Binding, non-specific” value ([20]; pHo 8.40, + unlabeled LXA4 0.3 μM) was 0.42 ± 0.09 fmol/10^6 cells. For the same compound, the “[3H]LXA4 Binding, total” value ([20]; pHo 8.40, no unlabeled LXA4) was 1.19 ± 0.12 fmol/10^6 cells, the “final [3H]LXA4 uptake (combined data)” value [21] was 7.26±0.26 fmol/10^6 cells and the “initial [3H]LXA4 influx rate (combined data)” value [21] was 0.57±0.09 fmol/10^6 cells/min.
